Results as given in PMC10534581 (Pharmaceutics, 2023).

Experiments:
[1] = Steady-state trough serum concentration (TDM, HPLC with UV detection); format: in vivo, human; settings: for Est. of Dose on square-root serum concentration, multiple linear regression / Est. of Body weight on square-root serum concentration, multiple linear regression: Model 1, last datapoint, sex, smoking; for Est. of Dose on square-root serum concentration, multiple linear regression: covariates age, body weight; for Est. of Body weight on square-root serum concentration, multiple linear regression: covariates dose, age; for Est. of Body weight on square-root serum concentration, linear mixed effect model / Est. of Dose on square-root serum concentration, linear mixed effect model: Model 2, all datapoints, multiple predictors incl. time; for β of daily dose on square-root serum concentration, linear mixed-effect model: all datapoints, dose as only fixed predictor; for steady-state serum concentration, range / mean steady-state serum concentration, mean (SD): children and adolescents n = 138, last datapoint; for steady-state serum concentration, range: FLX 10–40 mg/day; for mean steady-state serum concentration, mean (SD): FLX 10–40 mg/day (mean 19.93 mg); for β of daily dose (mg) on square-root serum concentration, simple linear regression: last datapoints
Method: The study spanned three different routine healthcare settings, including inpatient, outpatient, and day-treatment units. […] All dosing steps were recorded along with corresponding dates in the medication protocol. […] Depending on the clinical course, additional visit times were possible.
TDM analysis was conducted according to the guidelines of the Working Group on Neuropsychopharmacology and Pharmacopsychiatry (AGNP) consensus. Blood samples were collected from cubital veins into 7.5-mL monovettes without any additives or anticoagulants at a steady-state trough level. The samples were immediately analyzed (in the case of samples from Wuerzburg, Germany) or analyzed after being received by the TDM laboratory in Wuerzburg, Germany, shipped by regular mail. […] Each analytical series included internal quality control samples, and external control samples were analyzed quarterly. The laboratory responsible for the analysis is certified by a quality control program (https://www.instand-ev.de, accessed on 2 July 2023; https://www.ukw.de/psychiatrie/zuweisende-kolleginnen-und-kollegen/tdm-labor/zertifikate/, accessed on 2 July 2023). Analytical grade chemicals and solvents were procured from Sigma-Aldrich Chemie GmbH (Taufkirchen, Germany).
All statistical analyses were performed using R (R Foundation for Statistical Computing) version 4.1.1. The alpha level for all analyses was set to 0.05. To maximize the comparability of the conclusions from the dataset generated in this study, the main analyses were performed with both the last valid timepoint, as in previous relevant studies, and with all the valid timepoints, as detailed in the next paragraph. […] The model assumptions were verified by means of the semi-automated diagnostic functions in the ‘gvlma’ (Global Validation of Linear Models Assumptions) R package, including evaluation of global statistics, skewness, kurtosis, link function, and heteroscedasticity parameters and inspection of the related plots. […] In addition to the simple linear regressions, multiple linear regressions were performed with four additional hypothesized predictors: age (years), sex (male/female), body weight (kg), and smoking status (yes/no). The variance inflation factor (VIF) was evaluated as a measure of multicollinearity. Both regressions were compared based upon model fit. Second, proportional odds models using the clm (cumulative link models) function in the ‘ordinal’ R package were fitted to examine the serum concentrations as predictors of clinical effects (measured by CGI-I) and adverse effects (measured by PAERS—maximal severity). […] The analyses were repeated with an extended set of hypothesized predictors. For CGI-I, these were age, sex, psychotropic co-medication (i.e., antipsychotic and antidepressant drug), and diagnostic comorbidity (i.e., a single diagnosis versus multiple diagnoses). For PAERS, the predictors were age, sex, and psychotropic co-medication. The proportional odds assumptions in these statistics were verified with likelihood ratio tests using the nominal_test and scale_test functions, while model convergence was tested with the convergence function.
The model with multiple predictors included the variables, as in the single timepoint analyses, as well as the data collection time (i.e., days from the baseline timepoint).
To determine a possible concentration threshold of efficacy, receiver operating curve (ROC) analyses were performed based on a binary logistic regression, and the optimal cutoff was calculated by finding an optimal trade-off between sensitivity and specificity.

children and adolescents [2] = test: Treatment response on Clinical Global Impression-Improvement (CGI-I); format: in vivo, human
Method: On the day of blood collection, treatment responses were measured using the Clinical Global Impression (CGI) Scale (Improvement, CGI-I), which clinicians were instructed to rate solely based on the effects of the drug. […] This instrument was specifically designed to quantify the severity of 56 signs of adverse events occurring in pediatric patients under treatment with a psychotropic drug. The 56 items were rated on a Likert scale with 'none', 'slight', 'moderate', 'severe', and 'extremely severe' responses. The maximal severity on any of the items was considered in this study. […] Additionally, indications for the TDM measurement, detailed information on concomitant medications, nicotine use, weight, and height were also recorded. […] All statistical analyses were performed using R (R Foundation for Statistical Computing) version 4.1.1. The alpha level for all analyses was set to 0.05. To maximize the comparability of the conclusions from the dataset generated in this study, the main analyses were performed with both the last valid timepoint, as in previous relevant studies, and with all the valid timepoints, as detailed in the next paragraph. […] In addition to the simple linear regressions, multiple linear regressions were performed with four additional hypothesized predictors: age (years), sex (male/female), body weight (kg), and smoking status (yes/no). The variance inflation factor (VIF) was evaluated as a measure of multicollinearity. Both regressions were compared based upon model fit. Second, proportional odds models using the clm (cumulative link models) function in the 'ordinal' R package were fitted to examine the serum concentrations as predictors of clinical effects (measured by CGI-I) and adverse effects (measured by PAERS-maximal severity). […] The analyses were repeated with an extended set of hypothesized predictors. For CGI-I, these were age, sex, psychotropic co-medication (i.e., antipsychotic and antidepressant drug), and diagnostic comorbidity (i.e., a single diagnosis versus multiple diagnoses). For PAERS, the predictors were age, sex, and psychotropic co-medication. The proportional odds assumptions in these statistics were verified with likelihood ratio tests using the nominal_test and scale_test functions, while model convergence was tested with the convergence function. […] The clmm (cumulative link mixed models) function from the 'ordinal' package was used to test the impact of metabolite level on clinical and adverse effects with CGI-I and […] […] The model with multiple predictors included the variables, as in the single timepoint analyses, as well as the data collection time (i.e., days from the baseline timepoint). To determine a possible concentration threshold of efficacy, receiver operating curve (ROC) analyses were performed based on a binary logistic regression, and the optimal cutoff was calculated by finding an optimal trade-off between sensitivity and specificity. […] The last valid datapoints were included in these analyses as deemed most appropriate. Transdiagnostic responders and responders with depression ([…].X and […].X) were considered separately.

children and adolescents [3] = test: Adverse effects on Pediatric Adverse Event Rating Scale (PAERS), maximal severity; format: in vivo, human; settings: n = 134 (4 missing); for patients with PAERS max. severity 'none' (no adverse effects): FLX 10–40 mg/day
Method: On the day of blood collection, treatment responses were measured using the Clinical Global Impression (CGI) Scale (Improvement, CGI-I), which clinicians were instructed to rate solely based on the effects of the drug. […] This instrument was specifically designed to quantify the severity of 56 signs of adverse events occurring in pediatric patients under treatment with a psychotropic drug. The 56 items were rated on a Likert scale with 'none', 'slight', 'moderate', 'severe', and 'extremely severe' responses. The maximal severity on any of the items was considered in this study. […] Additionally, indications for the TDM measurement, detailed information on concomitant medications, nicotine use, weight, and height were also recorded. […] All statistical analyses were performed using R (R Foundation for Statistical Computing) version 4.1.1. The alpha level for all analyses was set to 0.05. To maximize the comparability of the conclusions from the dataset generated in this study, the main analyses were performed with both the last valid timepoint, as in previous relevant studies, and with all the valid timepoints, as detailed in the next paragraph. […] As not all the assumptions were met by the original data, a square-root transformation was applied to the outcome variables. In addition to the simple linear regressions, multiple linear regressions were performed with four additional hypothesized predictors: age (years), sex (male/female), body weight (kg), and smoking status (yes/no). The variance inflation factor (VIF) was evaluated as a measure of multicollinearity. Both regressions were compared based upon model fit. Second, proportional odds models using the clm (cumulative link models) function in the 'ordinal' R package were fitted to examine the serum concentrations as predictors of clinical effects (measured by CGI-I) and adverse effects (measured by PAERS-maximal severity). As there was only a single 'very severe' PAERS response, 'very severe' and 'severe' responses were pooled together. The analyses were repeated with an extended set of hypothesized predictors. For CGI-I, these were age, sex, psychotropic co-medication (i.e., antipsychotic and antidepressant drug), and diagnostic comorbidity (i.e., a single diagnosis versus multiple diagnoses). For PAERS, the predictors were age, sex, and psychotropic co-medication. The proportional odds assumptions in these statistics were verified with likelihood ratio tests using the nominal_test and scale_test functions, while model convergence was tested with the convergence function. […] The clmm (cumulative link mixed models) function from the 'ordinal' package was used to test the impact of metabolite level on clinical and adverse effects with CGI-I and […] […]

[4] = cited from earlier work
CYP2D6 = settings: cited from earlier work
[5] = postmortem studies and case reports; cited from earlier work
patients = system: patients; design: method as in PMID 19723786, PMID 19934760; settings: cited from earlier work
[6] = Responders Transdiagnostic n = 64
[7] = Responders with Depression n = 44

| Compound | Est. of Dose on square-root serum concentration, multiple linear regression [1] | Est. of Body weight on square-root serum concentration, multiple linear regression [1] | Est. of Body weight on square-root serum concentration, linear mixed effect model [1] | Est. of Dose on square-root serum concentration, linear mixed effect model [1] | serum concentration of responders, M+1SD (mean plus 1 standard deviation) [1, 6] [ng/mL] | serum concentration of responders, M-1SD (mean minus 1 standard deviation) [1, 6] [ng/mL] | serum concentration of responders, Q1 (first interquartile) [1, 6] [ng/mL] | serum concentration of responders, Q3 (third interquartile) [1, 6] [ng/mL] | serum concentration of responders, M+1SD (mean plus 1 standard deviation) [1, 7] [ng/mL] | serum concentration of responders, M-1SD (mean minus 1 standard deviation) [1, 7] [ng/mL] | serum concentration of responders, Q1 (first interquartile) [1, 7] [ng/mL] | serum concentration of responders, Q3 (third interquartile) [1, 7] [ng/mL] | β of daily dose on square-root serum concentration, linear mixed-effect model [1] | steady-state serum concentration, range [1] [ng/mL] | mean steady-state serum concentration, mean (SD) [1] [ng/mL] | β of daily dose (mg) on square-root serum concentration, simple linear regression [1] | half-life [4] [h] | binding affinity to CYP2D6 (CYP2D6) | other results |
| --- | --- | --- | --- | --- | --- | --- | --- | --- | --- | --- | --- | --- | --- | --- | --- | --- | --- | --- | --- |
| CNCCC(Oc1ccc(C(F)(F)F)cc1)c1ccccc1 (centres unmarked) [FLX, Fluoxetine] | 0.24 | −0.07 | −0.07 | 0.34 | 191.29 | 57.97 | 73 | 155 | 181.19 | 62.51 | 69.5 | 156.25 | 0.31 | 17 to 396 | 123.66 ± 65.17 | 0.18 | 96 to 140 | high binding affinity | patients with CGI-I 'minimally improved' (children and adolescents [2]; n = 138, FLX 10–40 mg/day): 60 (43.5%); patients with CGI-I 'minimally worse' (children and adolescents [2]; n = 138, FLX 10–40 mg/day): 3 (2.2%); patients with CGI-I 'much worse' (children and adolescents [2]; n = 138, FLX 10–40 mg/day): 2 (1.4%); patients with CGI-I 'no change' (children and adolescents [2]; n = 138, FLX 10–40 mg/day): 8 (5.8%); patients with CGI-I 'very much worse' (children and adolescents [2]; n = 138, FLX 10–40 mg/day): 0 (0%); patients with CGI-I 'minimally improved' (children and adolescents [2]; n = 138, FLX 10–40 mg/day, listed as fluoxetine): 43.5%; patients with marked improvement (children and adolescents [2]; n = 138, much improved plus very much improved): 45.6%; patients with PAERS max. severity 'extremely severe' (children and adolescents [3]): 1 (0.7%); patients with PAERS max. severity 'severe' (children and adolescents [3]): 2 (1.5%); patients with PAERS max. severity 'none' (no adverse effects) (children and adolescents [3]): 87 (64.9%); patients with PAERS max. severity 'none' (no adverse effects) (children and adolescents [3]; listed as fluoxetine): 64.9%; absorption after oral administration [4]: almost completely absorbed; bioavailability ([4]; oral, reduced by hepatic first-pass metabolism): less than 90%; inhibition of CYP2D6 (CYP2D6): potent inhibitor; serum levels in fatal overdoses [5]: 1300 to 7000 ng/mL; patients who do not respond to pharmacologic monotherapy (patients): 40–60% |
| NCCC(Oc1ccc(C(F)(F)F)cc1)c1ccccc1 (centres unmarked) [NORFLX, Norfluoxetine] | 0.21 | −0.05 | −0.05 | 0.26 | 218.24 | 85.28 | 102.5 | 186 | 223.57 | 78.88 | 98.75 | 184.25 | 0.25 | 21 to 339 | 144.74 ± 65.93 | 0.19 | 96 to 360 | high binding affinity | relationship between serum level and therapeutic effect (CGI-I) (children and adolescents [2]; ordinal regressions): no significant relationship |
